Laboratory results published in patent US8822517B2, “Arylosulfonamides for the treatment of CNS diseases” (Adamed SP. Z O.O., priority 2010, dated 2014).

Columns and labels:
[1] = molecular target: T1, muscarinic M3 receptor (Homo sapiens, UniProt P20309); assay: Binding assay M3 (h), [3H]4-DAMP, CHO cells; conditions: read-out: M3 [%]
T1 construct: expressed in transfected cells; host or cells: CHO cells
In short: (§1)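 Scintillation counting detects receptor-bound radioligand. Compound tested at 1×10^−6 M.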

[2] = molecular target: T2, serotoninergic receptor 5-HT2C (Homo sapiens, UniProt P28335); assay: Binding assay 5-HT2C (h), [3H]mesulergine, HEK-293 cells; conditions: read-out: 5-HT2C [%]
T2 construct: expressed in transfected cells; host or cells: HEK-293 cells
T2 sequence (P28335 33-458): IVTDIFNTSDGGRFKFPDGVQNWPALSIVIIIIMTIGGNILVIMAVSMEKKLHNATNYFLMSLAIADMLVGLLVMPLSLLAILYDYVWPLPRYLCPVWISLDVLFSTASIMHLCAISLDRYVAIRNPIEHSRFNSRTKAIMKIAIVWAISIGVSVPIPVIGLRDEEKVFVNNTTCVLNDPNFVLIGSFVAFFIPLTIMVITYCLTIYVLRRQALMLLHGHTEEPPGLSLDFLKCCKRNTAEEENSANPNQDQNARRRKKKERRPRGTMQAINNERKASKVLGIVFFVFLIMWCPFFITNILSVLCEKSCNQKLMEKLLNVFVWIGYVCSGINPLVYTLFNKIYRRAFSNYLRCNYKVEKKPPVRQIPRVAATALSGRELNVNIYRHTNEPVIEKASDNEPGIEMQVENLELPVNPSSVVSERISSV
In short: as §1

[3] = molecular target: T3, dopaminergic D3 receptor (Homo sapiens, UniProt P35462); assay: Cellular functional assay, dopaminergic D3 receptor (agonism/antagonism); type: cell-based; conditions: for inhibition at 1 µM: CHO, read-out: D3-antag. [%]; for activation at 1 µM: agonist effect, percent of control specific agonist response (300 nM dopamine for control), 1×10^−6 M, D3 (h), CHO cells, read-out: D3-ag [%]
T3 sequence (P35462 whole entry): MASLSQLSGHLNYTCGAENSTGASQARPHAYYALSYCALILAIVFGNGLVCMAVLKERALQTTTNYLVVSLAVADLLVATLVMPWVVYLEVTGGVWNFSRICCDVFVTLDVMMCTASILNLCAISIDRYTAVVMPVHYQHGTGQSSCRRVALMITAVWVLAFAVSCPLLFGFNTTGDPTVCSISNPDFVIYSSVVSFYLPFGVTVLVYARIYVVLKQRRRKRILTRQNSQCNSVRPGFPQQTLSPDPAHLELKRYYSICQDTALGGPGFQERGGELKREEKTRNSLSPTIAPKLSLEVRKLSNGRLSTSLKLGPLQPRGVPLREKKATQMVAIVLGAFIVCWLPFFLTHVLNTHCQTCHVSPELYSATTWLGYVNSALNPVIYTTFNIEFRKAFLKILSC
Protocol: (§2) The compounds were tested at the concentration of 1×10^−6M.
(§3) In the Tables ag refers to agonism, and antag to antagonism).

[4] = molecular target: serotoninergic 5-HT2A receptor (Homo sapiens, UniProt P28223); assay: Cellular functional assay, serotoninergic 5-HT2A receptor (agonism/antagonism); type: cell-based; conditions: for activation at 1 µM: read-out: 5-HT2A -ag [%]; for inhibition at 1 µM: read-out: 5-HT2A -antag [%]
Sequence of serotoninergic 5-HT2A receptor (P28223 whole entry): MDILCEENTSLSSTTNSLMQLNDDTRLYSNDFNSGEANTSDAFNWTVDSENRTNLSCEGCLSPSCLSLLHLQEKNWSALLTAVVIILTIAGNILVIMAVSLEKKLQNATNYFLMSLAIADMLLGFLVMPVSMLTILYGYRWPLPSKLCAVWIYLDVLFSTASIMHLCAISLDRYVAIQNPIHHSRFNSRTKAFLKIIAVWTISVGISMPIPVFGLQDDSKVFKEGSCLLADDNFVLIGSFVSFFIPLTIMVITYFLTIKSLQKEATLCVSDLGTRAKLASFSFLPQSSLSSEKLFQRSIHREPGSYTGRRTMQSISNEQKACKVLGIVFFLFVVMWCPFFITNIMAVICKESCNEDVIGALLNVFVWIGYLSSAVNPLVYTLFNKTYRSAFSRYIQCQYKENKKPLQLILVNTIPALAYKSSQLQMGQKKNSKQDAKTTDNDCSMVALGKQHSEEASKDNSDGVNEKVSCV
Protocol: […]. The compounds were tested at the concentration of 1×10^−6M.
Conditions and methodology (by reference to the literature) of cellular functional assays are given in Table 13 and the tests results for representative compounds are given in Table 14 (dopaminergic receptor D2), in Table 15 (dopaminergic receptor D3), in Table 16 (serotoninergic receptor 5-HT1A), in Table 17 (serotoninergic receptor 5-HT2A), in Table 18 (serotoninergic receptor 5-HT6), in Table 19 (serotoninergic receptor 5-HT7), in Table 20 (adrenergic α1 receptor), in Table 21 (adrenergic α2C receptor), in Table 22 (histaminergic H1 receptor) and in Table 23 (serotoninergic 5-HT2C receptor). In the Tables ag refers to agonism, and antag to antagonism).

[5] = molecular target: T4, serotoninergic 5-HT6 receptor (Homo sapiens, UniProt P50406); assay: Cellular functional assay, serotoninergic 5-HT6 receptor (agonism/antagonism); type: cell-based; conditions: for activation at 1 µM: agonist effect, percent of control specific agonist response, compounds tested at 1×10^−6M, read-out: 5-HT6-ag [%]; for inhibition at 1 µM: read-out: 5-HT6-antag. [%]
T4 sequence (P50406 whole entry): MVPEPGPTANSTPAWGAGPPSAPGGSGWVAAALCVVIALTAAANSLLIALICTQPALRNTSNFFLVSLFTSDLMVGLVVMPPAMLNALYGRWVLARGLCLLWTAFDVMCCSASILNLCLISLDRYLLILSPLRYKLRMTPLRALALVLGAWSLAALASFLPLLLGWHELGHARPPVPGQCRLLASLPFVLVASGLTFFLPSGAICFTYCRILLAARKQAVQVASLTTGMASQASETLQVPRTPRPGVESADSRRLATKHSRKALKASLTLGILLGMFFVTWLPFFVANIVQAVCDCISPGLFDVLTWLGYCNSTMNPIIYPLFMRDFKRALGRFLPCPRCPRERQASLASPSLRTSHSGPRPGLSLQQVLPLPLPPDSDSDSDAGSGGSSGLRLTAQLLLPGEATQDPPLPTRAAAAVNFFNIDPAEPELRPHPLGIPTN
Protocol: as §2, §3

[6] = molecular target: T5, adrenergic α2C receptor (Homo sapiens, UniProt P18825); assay: Cellular functional assay, adrenergic α2C receptor (agonism/antagonism); type: cell-based; conditions: for activation at 1 µM: agonist effect, percent of control specific agonist response, compounds tested at 1×10^−6M, read-out: α2C −ag [%]; for inhibition at 1 µM: read-out: α2C −antag. [%]
T5 sequence (P18825 1-462): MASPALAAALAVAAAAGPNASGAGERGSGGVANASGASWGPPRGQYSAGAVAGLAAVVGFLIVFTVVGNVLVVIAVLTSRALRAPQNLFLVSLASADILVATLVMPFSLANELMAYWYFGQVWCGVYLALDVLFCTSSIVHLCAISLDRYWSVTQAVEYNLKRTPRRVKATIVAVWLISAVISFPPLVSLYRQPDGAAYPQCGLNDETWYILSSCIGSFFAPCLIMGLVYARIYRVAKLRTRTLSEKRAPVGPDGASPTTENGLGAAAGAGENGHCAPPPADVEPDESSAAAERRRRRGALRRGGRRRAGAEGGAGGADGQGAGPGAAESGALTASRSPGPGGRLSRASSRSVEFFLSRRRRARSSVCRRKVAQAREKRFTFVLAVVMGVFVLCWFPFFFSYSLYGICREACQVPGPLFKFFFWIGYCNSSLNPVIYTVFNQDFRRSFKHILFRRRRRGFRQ
Protocol: as §2, §3

[7] = molecular target: T3, dopaminergic D3 receptor; assay: Binding assay D3 (h), [3H]methyl-spiperone, CHO cells; parameters: expressed in transfected cells; host or cells: CHO cells; conditions: read-out: D3 [%]
In short: as §1

[8] = molecular target: T4, serotoninergic 5-HT6 receptor; assay: Binding assay 5-HT6 (h), [3H]LSD, CHO cells; parameters: expressed in transfected cells; host or cells: CHO cells; conditions: read-out: 5-HT6
In short: as §1

[9] = molecular target: serotoninergic 5-HT7 receptor (Homo sapiens, UniProt P34969); assay: Binding assay 5-HT7 (h), [3H]LSD, CHO cells; parameters: expressed in transfected cells; host or cells: CHO cells; conditions: read-out: 5-HT7
Sequence of serotoninergic 5-HT7 receptor (P34969 whole entry): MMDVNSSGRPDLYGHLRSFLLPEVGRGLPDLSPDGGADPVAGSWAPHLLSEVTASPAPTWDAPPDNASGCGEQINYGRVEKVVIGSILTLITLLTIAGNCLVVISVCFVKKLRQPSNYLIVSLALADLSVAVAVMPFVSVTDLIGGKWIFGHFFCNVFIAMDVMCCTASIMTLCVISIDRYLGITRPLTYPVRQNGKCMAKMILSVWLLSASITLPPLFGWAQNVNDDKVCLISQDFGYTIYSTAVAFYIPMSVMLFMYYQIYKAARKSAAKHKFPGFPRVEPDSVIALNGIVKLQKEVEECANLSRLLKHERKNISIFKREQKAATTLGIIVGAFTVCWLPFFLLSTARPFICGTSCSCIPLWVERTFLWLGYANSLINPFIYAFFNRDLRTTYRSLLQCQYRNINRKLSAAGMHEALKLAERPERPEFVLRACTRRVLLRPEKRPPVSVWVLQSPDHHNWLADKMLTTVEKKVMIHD
In short: as §1

[10] = molecular target: T5, adrenergic α2C receptor; assay: Binding assay α2C (h), [3H]RX 821002, CHO cells; parameters: expressed in transfected cells; host or cells: CHO cells; conditions: read-out: α2C [%]
In short: as §1

[11] = molecular target: histaminergic H1 receptor (Homo sapiens, UniProt P35367); assay: Binding assay H1 (h), [3H]pyrilamine, HEK-293 cells; parameters: expressed in transfected cells; host or cells: HEK-293 cells; conditions: read-out: H1 [%]
Sequence of histaminergic H1 receptor (P35367 whole entry): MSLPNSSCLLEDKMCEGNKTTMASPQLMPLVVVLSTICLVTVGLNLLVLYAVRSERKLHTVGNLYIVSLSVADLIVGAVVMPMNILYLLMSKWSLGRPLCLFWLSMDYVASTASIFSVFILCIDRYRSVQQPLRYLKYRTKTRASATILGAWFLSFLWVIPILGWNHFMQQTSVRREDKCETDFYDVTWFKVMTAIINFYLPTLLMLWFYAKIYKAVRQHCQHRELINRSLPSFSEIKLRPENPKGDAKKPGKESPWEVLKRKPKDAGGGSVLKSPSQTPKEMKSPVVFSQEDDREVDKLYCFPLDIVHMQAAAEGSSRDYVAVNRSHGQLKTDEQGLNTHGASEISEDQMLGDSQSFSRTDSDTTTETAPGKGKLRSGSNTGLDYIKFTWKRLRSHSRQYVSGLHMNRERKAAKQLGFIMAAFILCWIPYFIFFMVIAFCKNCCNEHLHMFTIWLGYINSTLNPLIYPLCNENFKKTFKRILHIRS
In short: as §1

T1 sequence (P20309 whole entry): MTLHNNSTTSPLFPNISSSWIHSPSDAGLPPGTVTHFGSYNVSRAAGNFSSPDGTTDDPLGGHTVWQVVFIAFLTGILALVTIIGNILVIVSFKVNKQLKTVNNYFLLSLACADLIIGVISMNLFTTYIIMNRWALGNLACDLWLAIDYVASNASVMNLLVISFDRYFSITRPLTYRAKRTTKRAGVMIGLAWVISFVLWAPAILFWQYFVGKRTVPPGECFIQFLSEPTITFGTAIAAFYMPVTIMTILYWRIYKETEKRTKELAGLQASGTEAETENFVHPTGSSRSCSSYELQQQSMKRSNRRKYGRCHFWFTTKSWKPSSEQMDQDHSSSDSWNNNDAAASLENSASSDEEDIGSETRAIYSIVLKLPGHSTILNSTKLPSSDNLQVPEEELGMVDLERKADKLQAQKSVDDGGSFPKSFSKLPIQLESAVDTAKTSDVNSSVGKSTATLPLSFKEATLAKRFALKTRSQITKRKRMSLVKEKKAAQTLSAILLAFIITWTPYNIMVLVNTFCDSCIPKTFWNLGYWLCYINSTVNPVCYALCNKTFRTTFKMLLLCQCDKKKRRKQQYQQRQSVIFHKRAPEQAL

SMILES	inhibition at 1 µM [1] [%]	inhibition at 1 µM [2] [%]	inhibition at 1 µM [3] [%]	activation at 1 µM [3] [%]	activation at 1 µM [4] [%]	inhibition at 1 µM [4] [%]	activation at 1 µM [5] [%]	inhibition at 1 µM [5] [%]	activation at 1 µM [6] [%]	inhibition at 1 µM [6] [%]	inhibition at 1 µM [7] [%]	inhibition at 1 µM [8] [%]	inhibition at 1 µM [9] [%]	inhibition at 1 µM [10] [%]	inhibition at 1 µM [11] [%]
O=c1[nH]c2ccc(S(=O)(=O)NCCCN3CCN(c4nsc5ccccc45)CC3)cc2o1 [Compound 8, N-(3-(4-(1,2-Benzothiazol-3-yl)piperazin-1-yl)propyl)-2-oxo-3H-1,3-benzoxazole-6-sulphonamide]	-11	90	73	-24	-2	99	-1	64	-16	1	97	91	97	93	97
O=S(=O)(NCCCCN1CCN(c2cccc3[nH]ccc23)CC1)c1ccc2ccccc2c1 [Compound 26, N-{4-[4-(1H-Indol-4-yl)piperazin-1-yl]butyl}naphthalene-2-sulphonamide]	17	19	-8	64	-1	77	–	–	25	53	98	51	98	100	52
O=S(=O)(NCCCCN1CCN(c2cccc3[nH]ccc23)CC1)c1cc2ccccc2s1 [Compound 33, N-{4-[4-(1H-Indol-4-yl)piperazin-1-yl]butyl}-1-benzothiophene-2-sulphonamide]	5	27	-1	60	-1	41	–	–	-1	6	101	42	99	100	56
O=S(=O)(NCCCCN1CCN(c2noc3ccccc23)CC1)c1ccc2cc(Cl)ccc2c1 [Compound 79, N-[4-[4-(1,2-Benzoxazol-3-yl)piperazin-1-yl]butyl]-6-chloro-naphthalene-2-sulphonamide]	12	72	77	-9	-2	97	1	76	7	22	96	97	97	106	96
Cc1c(S(=O)(=O)NCCCCN2CCN(c3noc4ccccc34)CC2)sc2ccc(F)cc12 [Compound 81, N-[4-[4-(1,2-Benzoxazol-3-yl)piperazin-1-yl]butyl]-5-fluoro-3-methylbenzothiophene-2-sulphonamide]	6	50	76	-10	-1	95	1	88	9	20	97	98	99	106	93
O=S(=O)(NCCCCN1CCN(c2noc3ccccc23)CC1)c1c[nH]c2ncccc12 [Compound 89, N-[4-[4-(1,2-Benzoxazol-3-yl)piperazin-1-yl]butyl]-1H-pyrrolo[2,3-b]pyridine-3-sulphonamide]	22	34	69	-18	-2	94	0	83	-10	7	95	94	98	98	85
O=S(=O)(NCCCCN1CCC(c2noc3cc(F)ccc23)CC1)c1ccc2cc(Cl)ccc2c1 [Compound 97, 6-Chloro-N-[4-[4-(6-fluoro-1,2-benzoxazol-3-yl)piperidin-1-yl]butyl]naphthalene-2-sulphonamide]	16	89	87	-23	-3	102	-2	95	-4	36	100	98	93	100	91
O=S(=O)(NCCCN1CCC(c2noc3cc(F)ccc23)CC1)c1ccc2cc(Cl)ccc2c1 [Compound 98, 6-Chloro-N-[3-[4-(6-fluoro-1,2-benzoxazol-3-yl)piperidin-1-yl]propyl]naphthalene-2-sulphonamide]	16	91	109	-10	-2	97	-2	79	-1	16	104	98	98	108	100
Cc1c(S(=O)(=O)NCCCN2CCC(c3noc4cc(F)ccc34)CC2)sc2ccc(F)cc12 [Compound 102, 5-Fluoro-N-[3-[4-(6-fluoro-1,2-benzoxazol-3-yl)piperidin-1-yl]propyl]-3-methylbenzothiophene-2-sulphonamide]	18	76	83	4	-2	99	-1	82	-7	14	103	97	97	101	94
